What was measured:
Type in all cases: in vivo
[1] = system: barnyardgrass (Echinochloa crus-galli); assay: Test B flooded paddy test; conditions: for Plant response rating, Flood, Barnyardgrass: 250 g ai/ha, flooded paddy test, visual rating on 0 to 100 scale (0 no effect, 100 complete control) after 13 to 15 days; for Plant response rating, Barnyardgrass: Flood (flooded paddy test), 13 to 15 days
In short: (§1)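 Ratings are visual, 0–100 (100 = complete control), taken versus untreated controls 13 to 15 days after treatment in the greenhouse. Compound went straight into paddy water held 3 cm above soil, applied to 2-leaf-stage plants of four species.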

[2] = system: ducksalad (Heteranthera limosa); assay: Test B flooded paddy test; conditions: for Plant response rating, Flood, Ducksalad: 250 g ai/ha, flooded paddy test, visual rating on 0 to 100 scale (0 no effect, 100 complete control) after 13 to 15 days; for Plant response rating, Ducksalad: Flood (flooded paddy test), 13 to 15 days
In short: as §1

rice (Oryza sativa) = assay: Test B flooded paddy test; conditions: for Plant response rating, Flood, Rice: 250 g ai/ha, flooded paddy test, visual rating on 0 to 100 scale (0 no effect, 100 complete control) after 13 to 15 days; for Plant response rating, Rice: Flood (flooded paddy test), 13 to 15 days
In short: as §1

[3] = system: umbrella sedge (Cyperus difformis); assay: Test B flooded paddy test; conditions: for Plant response rating, Flood, Sedge, Umbrella: 250 g ai/ha, flooded paddy test, visual rating on 0 to 100 scale (0 no effect, 100 complete control) after 13 to 15 days; for Plant response rating, Sedge, Umbrella: Flood (flooded paddy test), 13 to 15 days
In short: as §1

[4] = system: barnyardgrass (Echinochloa crus-galli); assay: Test A pre-/postemergence plant response
In short: (§2)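 Visually rated 0–100 injury (100 = complete control) versus untreated plants, ~10 days in greenhouse. Application pre- (soil spray, loam/sand) and postemergence (2–10 cm, 1–2 leaf stage), same timepoint.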

[5] = system: large crabgrass (Digitaria sanguinalis); assay: Test A pre-/postemergence plant response
In short: as §2

[6] = system: pigweed (Amaranthus retroflexus); assay: Test A pre-/postemergence plant response
In short: as §2

[7] = system: velvetleaf (Abutilon theophrasti); assay: Test A pre-/postemergence plant response
In short: as §2

[8] = system: wheat (Triticum aestivum); assay: Test A pre-/postemergence plant response
In short: as §2

corn (Zea mays) = assay: Test A pre-/postemergence plant response
In short: as §2

[9] = system: morningglory (Ipomoea spp.); assay: Test A pre-/postemergence plant response
In short: as §2

[10] = system: giant foxtail (Setaria faberii); assay: Test A pre-/postemergence plant response
In short: as §2

[11] = 31 g ai/ha, scale of 0 to 100 where 0 is no effect and 100 is complete control
[12] = 62 g ai/ha, scale of 0 to 100 where 0 is no effect and 100 is complete control
[13] = 125 g ai/ha, scale 0 to 100, 0 is no effect, 100 is complete control
[14] = Postemergence, 125 g ai/ha, visual injury, 0 to 100 scale (0 no effect, 100 complete control), approx. ten days
[15] = Postemergence, 500 g ai/ha, 0 to 100 scale, 0 = no effect, 100 = complete control, approx. ten days
[16] = Preemergence, 125 g ai/ha, 0 to 100 scale, 0 = no effect, 100 = complete control
[17] = Preemergence, 500 g ai/ha, visual injury, 0 to 100 scale (0 no effect, 100 complete control), approx. ten days
[18] = Postemergence, 125 g ai/ha, 0 to 100 scale where 0 is no effect and 100 is complete control

`O=C1CCCC(O)=C1C(=O)c1cnc(-c2ccccc2)n(CC2CCCO2)c1=O` (centres unmarked) [Compound 59] was tested, and the “Plant response rating, Flood, Barnyardgrass” value [1] was 45, the “Plant response rating, Barnyardgrass” value [1, 11] was 0 and the “Plant response rating, Barnyardgrass” value [1, 12] was 0. For the same compound, the “Plant response rating, Barnyardgrass” value [1, 13] was 20, the “Plant response rating, Flood, Ducksalad” value [2] was 40 and the “Plant response rating, Ducksalad” value [2, 11] was 0. The “Plant response rating, Ducksalad” value [2, 12] was 0, the “Plant response rating, Ducksalad” value [2, 13] was 0 and the “Plant response rating, Flood, Rice” value (rice (Oryza sativa)) was 15. The “Plant response rating, Rice” value (rice (Oryza sativa); [11]) was 0, the “Plant response rating, Rice” value (rice (Oryza sativa); [12]) was 15 and the “Plant response rating, Rice” value (rice (Oryza sativa); [13]) was 15. For the same compound, the “Plant response rating, Flood, Sedge, Umbrella” value [3] was 75, the “Plant response rating, Sedge, Umbrella” value [3, 11] was 30 and the “Plant response rating, Sedge, Umbrella” value [3, 12] was 40. The “Plant response rating, Sedge, Umbrella” value [3, 13] was 50, the “Barnyardgrass plant response rating” value [4, 14] was 90 and the “Plant response rating, Barnyardgrass” value [4, 15] was 90. For the same compound, the “Plant response rating, Barnyardgrass” value [4, 16] was 40, the “Plant response rating, Barnyardgrass” value [4, 17] was 90 and the “Crabgrass, Large plant response rating” value [5, 14] was 90. The “Plant response rating, Crabgrass, Large” value [5, 15] was 100, the “Plant response rating, Crabgrass, Large” value [5, 16] was 90 and the “Plant response rating, Crabgrass, Large” value [5, 17] was 100. For the same compound, the “Pigweed plant response rating” value [6, 14] was 100, the “Plant response rating, Pigweed” value [6, 15] was 100 and the “Plant response rating, Pigweed” value [6, 16] was 90. The “Plant response rating, Pigweed” value [6, 17] was 100, the “Velvetleaf plant response rating” value [7, 14] was 100 and the “Plant response rating, Velvetleaf” value [7, 15] was 100. For the same compound, the “Plant response rating, Velvetleaf” value [7, 16] was 100, the “Plant response rating, Velvetleaf” value [7, 17] was 100 and the “Wheat plant response rating” value [8, 14] was 0. The “Plant response rating, Wheat” value [8, 15] was 10, the “Plant response rating, Wheat” value [8, 16] was 0 and the “Plant response rating, Wheat” value [8, 17] was 0. The “Corn plant response rating” value (corn (Zea mays); [14]) was 10, the “Plant response rating, Corn” value (corn (Zea mays); [15]) was 30 and the “Plant response rating, Corn” value (corn (Zea mays); [16]) was 0. For the same compound, the “Plant response rating, Corn” value (corn (Zea mays); [17]) was 0, the “Morningglory plant response rating” value [9, 14] was 100 and the “Plant response rating, Morningglory” value [9, 15] was 100. The “Plant response rating, Morningglory” value [9, 17] was 90, the “Foxtail, Giant plant response rating” value [10, 14] was 80 and the “Plant response rating, Foxtail, Giant” value [10, 15] was 90. The “Plant response rating, Foxtail, Giant” value [10, 16] was 50 and the “Plant response rating, Foxtail, Giant” value [10, 17] was 80.

For `COCCn1c(-c2cccc(C)c2)ncc(C(=O)C2=C(O)CCCC2=O)c1=O` [Compound 117], the “Plant response rating, Flood, Barnyardgrass” value [1] was 75, the “Plant response rating, Barnyardgrass” value [1, 12] was 65 and the “Plant response rating, Flood, Ducksalad” value [2] was 100. For the same compound, the “Plant response rating, Flood, Rice” value (rice (Oryza sativa)) was 15, the “Plant response rating, Rice” value (rice (Oryza sativa); [12]) was 0 and the “Plant response rating, Flood, Sedge, Umbrella” value [3] was 95. The “Plant response rating, Sedge, Umbrella” value [3, 12] was 95, the “Plant response rating, Barnyardgrass” value [4, 18] was 80 and the “Plant response rating, Barnyardgrass” value [4, 15] was 90. For the same compound, the “Plant response rating, Barnyardgrass” value [4, 16] was 50, the “Plant response rating, Barnyardgrass” value [4, 17] was 90 and the “Plant response rating, Crabgrass, Large” value [5, 18] was 80. The “Plant response rating, Crabgrass, Large” value [5, 15] was 100, the “Plant response rating, Crabgrass, Large” value [5, 16] was 60 and the “Plant response rating, Crabgrass, Large” value [5, 17] was 100. The “Plant response rating, Pigweed” value [6, 18] was 100, the “Plant response rating, Pigweed” value [6, 15] was 100 and the “Plant response rating, Pigweed” value [6, 16] was 90. For the same compound, the “Plant response rating, Pigweed” value [6, 17] was 100, the “Plant response rating, Velvetleaf” value [7, 18] was 100 and the “Plant response rating, Velvetleaf” value [7, 15] was 100. The “Plant response rating, Velvetleaf” value [7, 16] was 70, the “Plant response rating, Velvetleaf” value [7, 17] was 90 and the “Plant response rating, Wheat” value [8, 18] was 0. The “Plant response rating, Wheat” value [8, 15] was 30, the “Plant response rating, Wheat” value [8, 16] was 0 and the “Plant response rating, Wheat” value [8, 17] was 20. For the same compound, the “Plant response rating, Corn” value (corn (Zea mays); [18]) was 20, the “Plant response rating, Corn” value (corn (Zea mays); [15]) was 50 and the “Plant response rating, Corn” value (corn (Zea mays); [16]) was 0. The “Plant response rating, Corn” value (corn (Zea mays); [17]) was 20, the “Plant response rating, Morningglory” value [9, 18] was 100 and the “Plant response rating, Morningglory” value [9, 15] was 100. For the same compound, the “Plant response rating, Morningglory” value [9, 16] was 40, the “Plant response rating, Morningglory” value [9, 17] was 90 and the “Plant response rating, Foxtail, Giant” value [10, 18] was 70. The “Plant response rating, Foxtail, Giant” value [10, 15] was 80, the “Plant response rating, Foxtail, Giant” value [10, 16] was 20 and the “Plant response rating, Foxtail, Giant” value [10, 17] was 70.

Reference: patent US8952024B2, “Herbicidal pyrimidone derivatives” (E I du Pont de Nemours and Company, priority 2009, dated 2015)
